From the NIST ThermoML archive (doi:10.1016/j.jct.2015.07.014)
Where “and” joins values, the source holds several entries; their conditions need not be identical. Equal values may be shown once. Numbers after ± are expanded uncertainties.

Conditions: Fluid (supercritical or subcritical phases), Buoyancy - hydrostatic balance with magnetic suspension - one sinker

`N#N` [nitrogen] showed a mass density (298.12 K, 32109 kPa) of 311.953 ± 0.15 kg/m3, a mass density (298.22 K, 30959 kPa) of 303.674 ± 0.15 kg/m3 and a mass density (298.23 K, 10976 kPa) of 123.118 ± 0.07 kg/m3. It also gave a mass density (298.23 K, 12976 kPa) of 144.452 ± 0.079 kg/m3, a mass density (298.23 K, 16971 kPa) of 185.161 ± 0.096 kg/m3 and a mass density (298.23 K, 19010 kPa) of 204.785 ± 0.1 kg/m3. It also gave a mass density (298.23 K, 20970 kPa) of 222.928 ± 0.11 kg/m3, a mass density (298.23 K, 22971 kPa) of 240.653 ± 0.12 kg/m3 and a mass density (298.23 K, 26968 kPa) of 273.675 ± 0.14 kg/m3. The mass density (298.23 K, 26969 kPa) was 273.679 ± 0.14 kg/m3, the mass density (298.23 K, 28965 kPa) was 289.039 ± 0.14 kg/m3 and the mass density (298.23 K, 28966 kPa) was 289.035 ± 0.14 kg/m3. The mass density (298.24 K, 11019 kPa) was 123.569 ± 0.07 kg/m3, the mass density (298.24 K, 13017 kPa) was 144.868 ± 0.079 kg/m3 and the mass density (298.24 K, 14976 kPa) was 165.17 ± 0.088 kg/m3. The mass density (298.24 K, 17014 kPa) was 185.557 ± 0.096 kg/m3, the mass density (298.24 K, 18975 kPa) was 204.467 ± 0.1 kg/m3 and the mass density (298.24 K, 21004 kPa) was 223.219 ± 0.11 kg/m3. It also gave a mass density (298.24 K, 22992 kPa) of 240.817 ± 0.12 kg/m3, a mass density (298.24 K, 24970 kPa) of 257.55 ± 0.13 kg/m3 and a mass density (298.24 K, 24971 kPa) of 257.546 ± 0.13 kg/m3. The mass density (298.25 K, 15014 kPa) was 165.544 ± 0.088 kg/m3, the mass density (298.33 K, 30945 kPa) was 303.445 ± 0.15 kg/m3 and the mass density (348.21 K, 28966 kPa) was 244.176 ± 0.12 kg/m3. The mass density (348.23 K, 17010 kPa) was 154.974 ± 0.11 kg/m3, the mass density (348.23 K, 32959 kPa) was 269.893 ± 0.13 kg/m3 and the mass density (348.24 K, 18974 kPa) was 170.907 ± 0.093 kg/m3. It also gave a mass density (348.24 K, 26968 kPa) of 230.548 ± 0.12 kg/m3, a mass density (348.24 K, 28967 kPa) of 244.162 ± 0.12 kg/m3 and a mass density (348.25 K, 10981 kPa) of 103.086 ± 0.18 kg/m3. The mass density (348.25 K, 13016 kPa) was 121.065 ± 0.07 kg/m3, the mass density (348.25 K, 22970 kPa) was 201.759 ± 0.32 kg/m3 and the mass density (348.25 K, 24970 kPa) was 216.421 ± 0.13 kg/m3. The mass density (348.25 K, 26979 kPa) was 230.612 ± 0.12 kg/m3, the mass density (348.25 K, 30963 kPa) was 257.253 ± 0.13 kg/m3 and 257.258 ± 0.13 kg/m3 and the mass density (348.26 K, 15015 kPa) was 138.272 ± 0.074 kg/m3. For the same molecule, the mass density (348.26 K, 16972 kPa) was 154.648 ± 0.11 kg/m3, the mass density (348.26 K, 20971 kPa) was 186.577 ± 0.31 kg/m3 and the mass density (348.27 K, 11019 kPa) was 103.42 ± 0.18 kg/m3. It also gave a mass density (348.27 K, 21013 kPa) of 186.886 ± 0.31 kg/m3, a mass density (348.28 K, 12976 kPa) of 120.712 ± 0.069 kg/m3 and a mass density (348.28 K, 14976 kPa) of 137.928 ± 0.073 kg/m3. For the same molecule, the mass density (348.28 K, 19011 kPa) was 171.174 ± 0.093 kg/m3, the mass density (348.28 K, 23006 kPa) was 202.007 ± 0.32 kg/m3 and the mass density (348.29 K, 25001 kPa) was 216.612 ± 0.13 kg/m3. For the same molecule, the mass density (398.17 K, 21012 kPa) was 161.802 ± 0.082 kg/m3, the mass density (398.19 K, 23005 kPa) was 175.071 ± 0.088 kg/m3 and the mass density (398.21 K, 27000 kPa) was 200.503 ± 0.1 kg/m3. It also gave a mass density (398.22 K, 19011 kPa) of 148.062 ± 0.076 kg/m3, a mass density (398.22 K, 28993 kPa) of 212.616 ± 0.1 kg/m3 and a mass density (398.22 K, 32961 kPa) of 235.672 ± 0.12 kg/m3. It also gave a mass density (398.23 K, 25002 kPa) of 187.957 ± 0.094 kg/m3, a mass density (398.24 K, 20972 kPa) of 161.499 ± 0.082 kg/m3 and a mass density (398.24 K, 26967 kPa) of 200.287 ± 0.1 kg/m3. For the same molecule, the mass density (398.24 K, 28966 kPa) was 212.445 ± 0.1 kg/m3, the mass density (398.25 K, 12976 kPa) was 104.354 ± 0.057 kg/m3 and the mass density (398.25 K, 22969 kPa) was 174.806 ± 0.088 kg/m3. It also gave a mass density (398.26 K, 24969 kPa) of 187.737 ± 0.094 kg/m3, a mass density (398.26 K, 30962 kPa) of 224.219 ± 0.11 kg/m3 and a mass density (398.27 K, 30977 kPa) of 224.298 ± 0.11 kg/m3. It also gave a mass density (398.28 K, 14977 kPa) of 119.222 ± 0.065 kg/m3, a mass density (398.28 K, 18975 kPa) of 147.786 ± 0.076 kg/m3 and a mass density (398.29 K, 16973 kPa) of 133.67 ± 0.07 kg/m3. The mass density (398.3 K, 13014 kPa) was 104.623 ± 0.057 kg/m3, the mass density (398.32 K, 11005 kPa) was 89.328 ± 0.051 kg/m3 and the mass density (398.36 K, 17012 kPa) was 133.928 ± 0.07 kg/m3. The mass density (398.39 K, 15006 kPa) was 119.391 ± 0.065 kg/m3.

`[Ar]` [argon] gave a mass density (298.2 K, 30957 kPa) of 499.118 ± 0.25 kg/m3, a mass density (298.22 K, 26965 kPa) of 444.81 ± 0.22 kg/m3 and a mass density (298.22 K, 28963 kPa) of 472.591 ± 0.24 kg/m3. For the same molecule, the mass density (298.23 K, 10975 kPa) was 185.811 ± 0.11 kg/m3, the mass density (298.23 K, 12977 kPa) was 220.515 ± 0.12 kg/m3 and the mass density (298.23 K, 14975 kPa) was 254.862 ± 0.14 kg/m3. For the same molecule, the mass density (298.23 K, 18968 kPa) was 321.888 ± 0.17 kg/m3, the mass density (298.23 K, 20970 kPa) was 354.268 ± 0.18 kg/m3 and the mass density (298.23 K, 22969 kPa) was 385.599 ± 0.2 kg/m3. For the same molecule, the mass density (298.23 K, 24967 kPa) was 415.802 ± 0.21 kg/m3, the mass density (298.24 K, 16973 kPa) was 288.723 ± 0.15 kg/m3 and the mass density (348.19 K, 30960 kPa) was 409.077 ± 0.2 kg/m3. It also gave a mass density (348.21 K, 10976 kPa) of 153.363 ± 0.077 kg/m3, a mass density (348.21 K, 19007 kPa) of 262.654 ± 0.14 kg/m3 and a mass density (348.21 K, 28963 kPa) of 386.293 ± 0.19 kg/m3. The mass density (348.22 K, 18971 kPa) was 262.184 ± 0.14 kg/m3, the mass density (348.22 K, 28964 kPa) was 386.289 ± 0.19 kg/m3 and the mass density (348.23 K, 17005 kPa) was 236 ± 0.42 kg/m3. The mass density (348.24 K, 15014 kPa) was 209.051 ± 0.29 kg/m3, the mass density (348.24 K, 16969 kPa) was 235.508 ± 0.42 kg/m3 and the mass density (348.24 K, 26966 kPa) was 362.782 ± 1.3 kg/m3. It also gave a mass density (348.24 K, 30961 kPa) of 409.019 ± 0.2 kg/m3, a mass density (348.25 K, 12974 kPa) of 181.049 ± 0.34 kg/m3 and a mass density (348.25 K, 32887 kPa) of 430.274 ± 0.21 kg/m3. The mass density (348.26 K, 21009 kPa) was 288.719 ± 0.17 kg/m3, the mass density (348.26 K, 24967 kPa) was 338.568 ± 0.87 kg/m3 and the mass density (348.27 K, 14970 kPa) was 208.427 ± 0.29 kg/m3. For the same molecule, the mass density (348.27 K, 20969 kPa) was 288.199 ± 0.17 kg/m3, the mass density (348.27 K, 22970 kPa) was 313.733 ± 0.19 kg/m3 and the mass density (348.27 K, 26989 kPa) was 363.019 ± 1.3 kg/m3. For the same molecule, the mass density (348.28 K, 11019 kPa) was 153.917 ± 0.078 kg/m3, the mass density (348.28 K, 13012 kPa) was 181.556 ± 0.34 kg/m3 and the mass density (348.28 K, 25000 kPa) was 338.949 ± 0.87 kg/m3. The mass density (348.29 K, 23010 kPa) was 314.199 ± 0.19 kg/m3, the mass density (397.91 K, 12975 kPa) was 155.101 ± 0.085 kg/m3 and the mass density (397.98 K, 14981 kPa) was 178.323 ± 0.096 kg/m3. It also gave a mass density (398.1 K, 24969 kPa) of 288.472 ± 0.14 kg/m3, a mass density (398.17 K, 16979 kPa) of 201.05 ± 0.11 kg/m3 and a mass density (398.19 K, 30985 kPa) of 349.444 ± 0.17 kg/m3. It also gave a mass density (398.2 K, 28999 kPa) of 329.764 ± 0.17 kg/m3, a mass density (398.21 K, 32960 kPa) of 368.494 ± 0.18 kg/m3 and a mass density (398.23 K, 26971 kPa) of 309.171 ± 0.17 kg/m3. It also gave a mass density (398.23 K, 30962 kPa) of 349.179 ± 0.17 kg/m3, a mass density (398.24 K, 11017 kPa) of 132.022 ± 0.076 kg/m3 and a mass density (398.24 K, 19010 kPa) of 223.818 ± 0.11 kg/m3. It also gave a mass density (398.25 K, 21010 kPa) of 245.897 ± 0.12 kg/m3, a mass density (398.26 K, 13011 kPa) of 155.367 ± 0.085 kg/m3 and a mass density (398.26 K, 23005 kPa) of 267.5 ± 0.13 kg/m3. For the same molecule, the mass density (398.28 K, 28964 kPa) was 329.33 ± 0.16 kg/m3, the mass density (398.3 K, 17005 kPa) was 201.261 ± 0.11 kg/m3 and the mass density (398.31 K, 15013 kPa) was 178.513 ± 0.097 kg/m3. For the same molecule, the mass density (398.35 K, 27004 kPa) was 309.394 ± 0.15 kg/m3, the mass density (398.47 K, 25004 kPa) was 288.536 ± 0.14 kg/m3 and the mass density (398.61 K, 18975 kPa) was 223.208 ± 0.12 kg/m3. It also gave a mass density (398.87 K, 20975 kPa) of 245.092 ± 0.13 kg/m3 and a mass density (398.92 K, 22970 kPa) of 266.619 ± 0.14 kg/m3.
